{"source": "patent US12383624B2", "about": "“Cargo delivery system and composition comprising the same” (SEOUL NATIONAL UNIVERSITY R&DB FOUNDATION, priority 2018, dated 2025)", "experiment_in_all_cases": "target protein degradation by immunoblotting (Experimental Example 6)", "key": {"BCR-Abl": {"target": "T1, BCR-Abl (Homo sapiens, UniProt P00519)", "T1 construct": "BCR (N-terminal fusion partner, P11274); endogenous in cells; host or cells: K562; the other entry of the earlier key: BCR (P11274, Breakpoint cluster region protein)", "T1 sequence (P00519 with tags, fused parts or gaps)": "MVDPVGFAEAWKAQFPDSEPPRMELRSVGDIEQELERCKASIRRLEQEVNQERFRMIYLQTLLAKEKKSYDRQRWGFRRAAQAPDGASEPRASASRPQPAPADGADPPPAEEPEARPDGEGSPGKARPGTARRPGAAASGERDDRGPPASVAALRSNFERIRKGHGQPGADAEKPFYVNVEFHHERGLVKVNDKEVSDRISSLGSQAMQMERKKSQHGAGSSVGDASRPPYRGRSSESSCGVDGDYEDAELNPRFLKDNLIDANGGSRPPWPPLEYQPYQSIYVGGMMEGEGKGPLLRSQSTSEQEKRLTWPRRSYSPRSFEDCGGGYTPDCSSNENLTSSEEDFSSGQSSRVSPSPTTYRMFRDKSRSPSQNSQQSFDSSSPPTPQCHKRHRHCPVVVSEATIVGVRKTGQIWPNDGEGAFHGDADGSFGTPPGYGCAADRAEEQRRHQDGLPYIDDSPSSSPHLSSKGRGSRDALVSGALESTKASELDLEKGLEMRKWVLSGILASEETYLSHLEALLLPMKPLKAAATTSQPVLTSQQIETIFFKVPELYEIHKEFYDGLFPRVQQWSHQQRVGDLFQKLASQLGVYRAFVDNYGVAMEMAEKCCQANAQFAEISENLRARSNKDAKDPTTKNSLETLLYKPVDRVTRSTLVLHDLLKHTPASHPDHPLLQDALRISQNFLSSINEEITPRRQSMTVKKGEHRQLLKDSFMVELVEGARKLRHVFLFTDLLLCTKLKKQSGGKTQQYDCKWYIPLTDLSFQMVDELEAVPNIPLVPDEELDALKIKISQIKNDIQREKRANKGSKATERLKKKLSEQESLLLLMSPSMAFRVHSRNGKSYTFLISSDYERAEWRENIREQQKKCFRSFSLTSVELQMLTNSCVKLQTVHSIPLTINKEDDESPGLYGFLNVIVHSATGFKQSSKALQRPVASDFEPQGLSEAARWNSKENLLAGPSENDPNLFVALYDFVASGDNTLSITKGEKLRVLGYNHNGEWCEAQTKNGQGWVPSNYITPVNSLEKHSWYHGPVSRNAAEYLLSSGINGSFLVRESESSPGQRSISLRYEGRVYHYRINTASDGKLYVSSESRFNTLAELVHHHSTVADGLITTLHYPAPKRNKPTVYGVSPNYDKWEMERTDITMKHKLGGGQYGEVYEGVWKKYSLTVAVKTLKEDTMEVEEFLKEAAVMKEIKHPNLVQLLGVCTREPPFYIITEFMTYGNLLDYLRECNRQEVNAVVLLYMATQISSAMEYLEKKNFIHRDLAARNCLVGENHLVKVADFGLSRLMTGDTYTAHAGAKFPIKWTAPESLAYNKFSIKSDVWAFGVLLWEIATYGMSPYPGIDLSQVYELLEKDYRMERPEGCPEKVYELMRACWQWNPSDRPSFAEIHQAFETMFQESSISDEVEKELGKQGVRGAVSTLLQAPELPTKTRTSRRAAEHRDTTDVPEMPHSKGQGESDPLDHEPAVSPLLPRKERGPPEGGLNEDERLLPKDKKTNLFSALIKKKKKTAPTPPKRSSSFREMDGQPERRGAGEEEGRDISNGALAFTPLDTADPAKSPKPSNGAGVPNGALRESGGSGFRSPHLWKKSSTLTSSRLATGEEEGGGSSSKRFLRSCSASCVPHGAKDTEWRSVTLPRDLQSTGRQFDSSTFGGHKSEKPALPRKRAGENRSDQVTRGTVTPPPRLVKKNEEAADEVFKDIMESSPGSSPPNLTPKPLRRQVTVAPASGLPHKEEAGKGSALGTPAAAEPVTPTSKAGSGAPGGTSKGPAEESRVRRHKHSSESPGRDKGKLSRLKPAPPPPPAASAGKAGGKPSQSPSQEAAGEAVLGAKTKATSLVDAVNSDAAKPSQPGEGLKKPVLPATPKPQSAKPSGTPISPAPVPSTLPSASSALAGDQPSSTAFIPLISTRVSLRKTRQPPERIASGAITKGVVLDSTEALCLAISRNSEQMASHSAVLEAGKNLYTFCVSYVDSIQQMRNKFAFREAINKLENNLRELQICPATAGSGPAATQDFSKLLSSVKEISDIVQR", "T1 sequence (Q13501 2-440 partner limits assumed)": "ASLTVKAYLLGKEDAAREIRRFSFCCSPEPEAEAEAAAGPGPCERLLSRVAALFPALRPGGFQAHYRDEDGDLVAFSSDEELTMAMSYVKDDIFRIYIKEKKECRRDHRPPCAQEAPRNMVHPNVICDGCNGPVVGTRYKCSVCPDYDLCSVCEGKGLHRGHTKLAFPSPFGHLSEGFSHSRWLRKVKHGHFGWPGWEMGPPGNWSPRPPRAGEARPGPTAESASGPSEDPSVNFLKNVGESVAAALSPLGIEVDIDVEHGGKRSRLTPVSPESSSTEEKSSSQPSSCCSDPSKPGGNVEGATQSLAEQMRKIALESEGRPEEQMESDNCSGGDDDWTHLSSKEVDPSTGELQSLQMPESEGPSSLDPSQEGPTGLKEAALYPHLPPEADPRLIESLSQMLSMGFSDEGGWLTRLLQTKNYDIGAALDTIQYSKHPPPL", "format": "cell-based", "conditions": "K562 cell line, 24 hours", "description": "(§1) In order to evaluate the target proteion degradation efficacy by Examples 14 to 33 according the disclosure, the following experiment was conducted.\n(§2) First, as cell lines primarily expressing the target protein, Human kidney-derived cancer cells, HEK293T (ATCC, CRL-3216), human prostate-derived cancer cells, LNcap (Korean Cell Line Bank, Korean Cell Line Research Foundation, KCLB No. 80018), mouse embryonic fibroblast, MEF (ATCC, SCRC-1008), human cervical cancer cells, HeLa (Korean Cell Line Bank, Korean Cell Line Research Foundation, KCLB No. 10002), human blood-derived cells, K562 (Korean Cell Line Bank, Korean Cell Line Research Foundation, KCLB No. 10243), human blood-derived cells, THP-1 (Korean Cell Line Bank, Korean Cell Line Research Foundation, KCLB No. 40202), human lung-derived cancer cells, A549 (Korean Cell Line Bank, Korean Cell Line Research Foundation, KCLB No. 10185), human breast-derived cancer cells, MCF7 (Korean Cell Line Bank, Korean Cell Line Research Foundation, KCLB No. 30022), human neuroblastoma, SH-SY5Y cell lines (Korean Cell Line Bank, Korean Cell Line Research Foundation, KCLB No. 22266), human pancreatic cancer cells, PANC-1 (Korean Cell Line Bank, Korean Cell Line Research Foundation, KCLB No. 21469) were cultured, respectively, in an incubator maintained at 5% carbon dioxide, using DMEM containing 10% FBS and 1% streptomycin/penicillin, RPMI1640, or MEM medium, and then the respective cells were dispensed in 12-well plate. Additional incubation was performed for 24 hours to ensure that each cell completely fixed to the surface of the plate.\n(§3) In order to confirm whether Compounds A to W of Examples 14 to 33 degrade the target protein respectively, the cultured cells were treated with the compound of each example for 24 hours and then collected.\n(§4) In this case, HEK293T, which is human kidney-derived cancer cells, LNcap, which is human prostate-derived cancer cells, and MEF cell line, which is mouse embryonic fibroblasts, were treated with Example 14 (Compound A). HEK293T, which is human kidney-derived cancer cells, was treated with Example 15 (Compound B). HEK293T cell line, which is human kidney-derived cancer cells, and HeLa cell line, which is cervical-derived cancer cells, were treated with Example 16 (Compound C). HEK293T cell line, which is human kidney-derived cancer cells, was treated with Example 17 (Compound D). K562 cell line, which is human blood-derived cells, was treated with Example 18 (Compound E). HEK293T cell line, which is human kidney-derived cancer cells, was treated with Example 19 (Compound F). THP-1 cell line, which is human blood-derived cells, was treated with Example 20 (Compound G). A549 cell line, which is human lung-derived cancer cells, was treated with Example 21 (Compound H). A549 cell line, which is human lung-derived cancer cells, was treated with Example 22 (Compound I). MCF7 cell line, which is human breast-derived cancer cells, was treated with Example 23 (Compound J). HEK293T cell line, which is […], was treated with Example 24 (Compound L). SH-SY5Y, which is human neuroblastoma, and HeLa cell line, which is cervical-derived cancer cells, were treated with Example 25 (Compound M). THP-1 cell line, which is human blood-derived cells, was treated with Example 26 (Compound P). SH-SY5Y, which is human neuroblastoma, and HeLa cell line, which is cervical-derived cancer cells, were treated with Example 27 (Compound Q). SH-SY5Y, which is human neuroblastoma, and HeLa cell line, which is cervical-derived cancer cells, were treated with Example 28 (Compound R). HeLa cell line, a human cervical-derived cancer cell, was treated with Example 29 (Compound S). SH-SY5Y cell line, which is human neuroblastoma, was treated with Example 30 (Compound T). SH-SY5Y cell line, which is human neuroblastoma, was treated with Example 31 (Compound U). PANC-1 cell line, which is human pancreatic-derived cancer cells, was treated with Example 32 (Compound V). […]"}, "c-Abl": {"target": "T2, c-Abl (Homo sapiens, UniProt P00519)", "T2 construct": "as cell lines primarily expressing the target protein; endogenous in cells; host or cells: K562", "T2 sequence (P00519 whole entry)": "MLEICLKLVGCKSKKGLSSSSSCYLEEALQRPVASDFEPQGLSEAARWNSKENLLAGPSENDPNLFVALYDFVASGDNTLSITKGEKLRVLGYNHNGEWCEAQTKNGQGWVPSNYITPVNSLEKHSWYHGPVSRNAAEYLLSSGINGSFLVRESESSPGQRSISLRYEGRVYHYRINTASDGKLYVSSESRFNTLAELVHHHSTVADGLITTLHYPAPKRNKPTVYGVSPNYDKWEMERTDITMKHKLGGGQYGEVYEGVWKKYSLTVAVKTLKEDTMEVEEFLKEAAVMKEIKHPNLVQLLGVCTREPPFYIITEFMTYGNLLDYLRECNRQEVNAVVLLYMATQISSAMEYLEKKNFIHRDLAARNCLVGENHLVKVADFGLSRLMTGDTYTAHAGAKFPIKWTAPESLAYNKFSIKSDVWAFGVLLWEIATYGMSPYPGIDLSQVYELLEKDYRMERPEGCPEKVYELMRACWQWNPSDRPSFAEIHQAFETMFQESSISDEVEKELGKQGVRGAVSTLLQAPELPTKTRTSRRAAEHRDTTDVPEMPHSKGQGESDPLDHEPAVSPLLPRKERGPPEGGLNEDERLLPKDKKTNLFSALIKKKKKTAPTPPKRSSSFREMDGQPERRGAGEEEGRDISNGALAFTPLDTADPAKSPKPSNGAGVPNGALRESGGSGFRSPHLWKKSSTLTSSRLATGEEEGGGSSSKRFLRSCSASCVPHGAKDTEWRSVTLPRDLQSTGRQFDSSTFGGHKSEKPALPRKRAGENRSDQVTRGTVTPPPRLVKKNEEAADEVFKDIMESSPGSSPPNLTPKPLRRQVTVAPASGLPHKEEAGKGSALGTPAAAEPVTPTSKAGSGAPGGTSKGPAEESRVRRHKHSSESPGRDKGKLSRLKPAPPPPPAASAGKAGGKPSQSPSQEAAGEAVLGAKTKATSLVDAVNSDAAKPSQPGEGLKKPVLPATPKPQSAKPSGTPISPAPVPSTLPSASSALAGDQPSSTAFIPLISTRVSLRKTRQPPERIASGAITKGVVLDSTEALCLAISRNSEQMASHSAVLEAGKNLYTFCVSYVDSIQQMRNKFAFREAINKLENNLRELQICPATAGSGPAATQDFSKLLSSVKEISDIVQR", "T2 sequence (Q13501 2-440 partner limits assumed)": "as the sequence (Q13501 2-440 partner limits assumed) above", "format": "cell-based", "conditions": "K562 cell line, 24 hours", "description": "as §1, §2, §3, §4"}, "CK2": {"tested_on": "CK2", "format": "cell-based, human", "conditions": "HEK293T cell line, 24 hours", "description": "as §1, §2, §3, §4"}, "ERα": {"target": "T3, ERα (Homo sapiens, UniProt P03372)", "T3 construct": "as cell lines primarily expressing the target protein; endogenous in cells; host or cells: MCF7", "T3 sequence (P03372 whole entry)": "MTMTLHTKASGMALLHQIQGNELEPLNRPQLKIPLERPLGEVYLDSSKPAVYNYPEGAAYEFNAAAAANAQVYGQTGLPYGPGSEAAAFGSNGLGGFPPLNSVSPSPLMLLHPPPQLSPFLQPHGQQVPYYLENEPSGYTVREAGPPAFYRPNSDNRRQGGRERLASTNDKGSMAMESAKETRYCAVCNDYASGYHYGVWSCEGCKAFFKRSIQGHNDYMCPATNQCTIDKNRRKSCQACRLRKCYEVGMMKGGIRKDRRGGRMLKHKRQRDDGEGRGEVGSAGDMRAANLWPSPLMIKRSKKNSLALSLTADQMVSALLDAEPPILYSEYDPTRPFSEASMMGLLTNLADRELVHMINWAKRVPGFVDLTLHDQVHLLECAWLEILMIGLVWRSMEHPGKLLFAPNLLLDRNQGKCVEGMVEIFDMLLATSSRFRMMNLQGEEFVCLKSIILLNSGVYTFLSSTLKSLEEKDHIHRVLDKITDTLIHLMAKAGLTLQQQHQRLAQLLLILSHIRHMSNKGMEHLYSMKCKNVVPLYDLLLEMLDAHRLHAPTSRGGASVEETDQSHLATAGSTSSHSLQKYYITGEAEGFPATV", "format": "cell-based", "conditions": "MCF7 cell line, 24 hours", "description": "as §1, §2, §3, §4"}, "Bcl-2": {"tested_on": "Bcl-2", "format": "cell-based, human", "conditions": "HEK293T cell line, 24 hours", "description": "as §1, §2, §3, §4"}}}
{"smiles": "Cc1nc(Nc2ncc(C(=O)Nc3c(C)cccc3Cl)s2)cc(N2CCN(CCNCCOCCOCCNC[C@@H](O)COc3ccc(OCc4ccccc4)c(OCCCc4ccccc4)c3)CC2)n1", "note": "[Example 18, (R)-2-((6-(4-(15-(4-(benzyloxy)-3-(3-phenylpropoxy)phenoxy)-14-hydroxy-6,9-dioxa-3,12-diazapentadecyl)piperazin-1-yl)-2-methylpyrimidin-4-yl)amino)-N-(2-chloro-6-methylphenyl)thiazole-5-carboxamide]", "values": [{"measurement": "degradation of target protein BCR-Abl (decrease in level vs Control)", "setting": "BCR-Abl", "value": "can be degraded"}, {"measurement": "degradation of target protein c-Abl (decrease in level vs Control)", "setting": "c-Abl", "value": "can be degraded"}]}
{"smiles": "O=C(O)c1ccc2c(c1)nc(Nc1cccc(NCCOCCOCCNC[C@@H](O)COc3ccc(OCc4ccccc4)c(OCCc4ccccc4)c3)c1)c1ccncc12", "note": "[Example 19, (R)-5-((3-((2-(2-(2-((3-(4-(benzyloxy)-3-phenethoxyphenoxy)-2-hydroxypropyl)amino)ethoxy)ethoxy)ethyl)amino)phenyl)amino)benzo[c][2,6]naphthyridine-8-carboxylic acid]", "values": [{"measurement": "degradation of target protein CK2 (decrease in level vs Control)", "setting": "CK2", "value": "can be degraded"}]}
{"smiles": "CCN(CCCCNCCOCCOCCNCc1ccc(OCc2ccccc2)c(OCc2ccccc2)c1)CCOc1ccc(C(=O)c2c(-c3ccc(O)cc3)sc3cc(O)ccc23)cc1", "note": "[Example 23, (4-((1-(3,4-bis(benzyloxy)phenyl)-16-ethyl-5,8-dioxa-2,11,16-triazaoctadecan-18-yl)oxy)phenyl) (6-hydroxy-2-(4-hydroxyphenyl)benzo[b]thiophen-3-yl)methanone]", "values": [{"measurement": "degradation of target protein ERα (decrease in level vs Control)", "setting": "ERα", "value": "can be degraded"}]}
{"smiles": "O=C(O)c1ccc2c(c1)nc(Nc1cc(Cl)cc(NCCOCCOCCOCCOCCOCCNC[C@@H](O)COc3ccc(OCc4ccc(F)cc4)c(OCc4ccc(F)cc4)c3)c1)c1ccncc12", "note": "[Example 24, (R)-5-((3-((21-(3,4-bis((4-fluorobenzyl)oxy)phenoxy)-20-hydroxy-3,6,9,12,15-pentaoxa-18-azahenicosyl)amino)-5-chlorophenyl)amino)benzo[c][2,6]naphthyridine-8-carboxylic acid]", "values": [{"measurement": "degradation of target protein Bcl-2 (decrease in level vs Control)", "setting": "Bcl-2", "value": "can be degraded"}]}
